Laboratory results taken from patent US6495593B1, “Compositions for preventing or treating adverse physiological effects associated with cardiac disease” (Dry Creek Nutrition, Inc., priority 1999, dated 2002).

Legend:
[1] = In vitro peroxyl radical scavenging assay (AAPH / 5-/6-carboxyfluorescein); conditions: 25 μg/mL; AAPH 2 mM
Procedure: Peroxyl radical scavenging activity was examined by adding proanthocyanidin to a peroxyl radical generating system (Makrigiorgos et al., “Novel Fluorescein-Based Flow Cytometric Method for Detection of Lipid Peroxidation,” Free Rad. Biol. Med., 22:93-100 (1997)). Peroxyl radicals were generated by dissolving 2,2′-azobis (2-amidinopropane) dihydrochloride (AAPH) in phosphate buffered saline (PBS) at 37° C. Scavenging activity of proanthocyanidin was compared with trolox (100 μM), a known peroxyl radical scavenger.

[2] = In vitro hydroxyl radical scavenging assay (γ-irradiated coumarin-3-carboxylic acid); conditions: 1 mM; 10^-5 M CCA, γ-irradiation
Procedure: Aqueous solution of coumarin-3-carboxylic acid (CCA) was diluted in PBS buffer, pH 7.4 to give a final concentration of 10^−5 M. Polymethylmethacrylate cuvettes containing 2.5 mL CCA solution were irradiated with ^137Cs γ-ray (dose rate 1.14 Gy/min) (MDS Nordian., Ontario, Canada) at room temperature. […] Fluorescence was measured at room temperature with a Perkin Elmer LS 50 fluorimeter (excitation 400 nm, emission 450 nm) (Collins et al., “Coumarin Chemical Dosimeter for Radiation Therapy,” Med. Phys., 21: 1741-1747 (1994)). […] The scavenging activity of the proanthocyanidin extract was compared against 1 mM DMSO.

Compound	peroxyl radical scavenging activity relative to proanthocyanidin 10 μg/mL [1]	induction of 7-OH-CCA formation (hydroxyl radical scavenging) [2]
Cc1c(C)c2c(c(C)c1O)CCC(C)(C(=O)O)O2 (centres unmarked) [trolox]	comparable	
C[S+](C)[O-] [DMSO, dimethyl sulfoxide]		reduced the induction of 7-OH-CCA formation
